Results taken from ChEMBL document CHEMBL4613212, “Insights of synthetic analogues of anti-leprosy agents” (Bioorg Med Chem, 2019).
Converted amounts (≈) assume the structure as drawn.

Legend:
[1] = system: Mycobacterium tuberculosis; experiment: Antimycobacterial activity against Mycobacterium tuberculosis H37Rv infected in CF-1 mouse assessed as change in survival time at 16 mg/kg administrated daily for 14 days with food relative to control; type: functional
[2] = system: Mycobacterium tuberculosis; experiment: Antimycobacterial activity against Mycobacterium tuberculosis H37Rv infected in CF-1 mouse assessed as change in survival time at 5 mg/kg administrated daily for 14 days with food relative to control; type: functional
[3] = system: Mycobacterium tuberculosis; experiment: Antimycobacterial activity against Mycobacterium tuberculosis H37Rv infected in CF-1 mouse assessed as change in survival time at 9 mg/kg administrated daily for 14 days with food relative to control; type: functional
[4] = system: Mycobacterium tuberculosis; experiment: Antimycobacterial activity against Mycobacterium tuberculosis H37Rv infected in CF-1 mouse assessed as change in survival time at 2 mg/kg administrated daily for 14 days with food relative to control; type: functional
Mycobacterium leprae [5] = experiment: Anti-leprotic activity against Mycobacterium leprae infected in BALB/c mouse assessed as time delay in bacterial multiplication in footpad at 0.008 g/100g of diet administered via feed starting 60 or 75 day post infection up to 90 days by Shepard's kinetic method; type: functional
Monocyte [6] = experiment: Antiinflammatory activity in human monocytes assessed as inhibition of LPS-induced TNFaplha production at 50 uM preincubated for 15 mins followed by LPS addition and measured after 4 hrs by ELISA relative to control; type: functional
Monocyte [7] = experiment: Antiinflammatory activity in human monocytes assessed as inhibition of LPS-induced TNFaplha production preincubated for 15 mins followed by LPS addition and measured after 4 hrs by ELISA; type: functional, cell-based
[8] = Cytotoxicity against LPS-induced human monocytes assessed as cell viability at 50 uM by tryphan blue staining based assay relative to control; parameters: species or system Monocyte; conditions: read-out: Activity
Mycobacterium leprae [9] = experiment: Anti-leprotic activity against Mycobacterium leprae infected in BALB/c mouse assessed as time delay in bacterial multiplication in footpad at 0.011 g/100g of diet administered via feed starting 60 or 75 day post infection up to 90 days by Shepard's kinetic method; type: functional
Mycobacterium leprae [10] = experiment: Anti-leprotic activity against Mycobacterium leprae subcultures at 4 weeks assessed as ATP level per 10^7 cells at 1.0 mg/L measured by bioluminescence assay (reference value: 462 +/- 64 pg); type: functional
Mycobacterium leprae [11] = experiment: Anti-leprotic activity against Mycobacterium leprae primary cultures at 4 weeks assessed as [3H]thymidine uptake per 5 times 10^7 cells at 1.0 mg/L (reference value: 0.95 +/- 0.01 pmol); type: functional
Mycobacterium leprae [12] = experiment: Anti-leprotic activity against Mycobacterium leprae subcultures at 4 weeks assessed as [3H]thymidine uptake per 5 times 10^7 cells at 5.0 mg/L (reference value: 1.28 +/- 0.14 pmol); type: functional
Mycobacterium leprae [13] = experiment: Anti-leprotic activity against Mycobacterium leprae primary cultures at 4 weeks assessed as ATP level per 10^7 cells at 0.5 mg/L measured by bioluminescence assay (reference value: 314 +/- 46 pg); type: functional
Mycobacterium leprae [14] = experiment: Anti-leprotic activity against Mycobacterium leprae primary cultures at 4 weeks assessed as [3H]thymidine uptake per 5 times 10^7 cells at 15.0 mg/L (reference value: 0.95 +/- 0.01 pmol); type: functional
Mycobacterium leprae [15] = experiment: Anti-leprotic activity against Mycobacterium leprae primary cultures at 4 weeks assessed as ATP level per 10^7 cells at 10.0 mg/L measured by bioluminescence assay (reference value: 314 +/- 46 pg); type: functional
Mycobacterium leprae [16] = experiment: Anti-leprotic activity against Mycobacterium leprae primary cultures at 4 weeks assessed as [3H]thymidine uptake per 5 times 10^7 cells at 10.0 mg/L (reference value: 0.95 +/- 0.01 pmol); type: functional
Mycobacterium leprae [17] = experiment: Anti-leprotic activity against Mycobacterium leprae primary cultures at 4 weeks assessed as [3H]thymidine uptake per 5 times 10^7 cells at 0.5 mg/L (reference value: 0.95 +/- 0.01 pmol); type: functional
Mycobacterium leprae [18] = experiment: Anti-leprotic activity against Mycobacterium leprae primary cultures at 4 weeks assessed as ATP level per 10^7 cells at 15.0 mg/L measured by bioluminescence assay (reference value: 314 +/- 46 pg); type: functional
Mycobacterium leprae [19] = experiment: Anti-leprotic activity against Mycobacterium leprae primary cultures at 4 weeks assessed as [3H]thymidine uptake per 5 times 10^7 cells at 5.0 mg/L (reference value: 0.95 +/- 0.01 pmol); type: functional
Mycobacterium leprae [20] = experiment: Anti-leprotic activity against Mycobacterium leprae subcultures at 4 weeks assessed as [3H]thymidine uptake per 5 times 10^7 cells at 20.0 mg/L (reference value: 1.28 +/- 0.14 pmol); type: functional
Mycobacterium leprae [21] = experiment: Anti-leprotic activity against Mycobacterium leprae subcultures at 4 weeks assessed as ATP level per 10^7 cells at 20.0 mg/L measured by bioluminescence assay (reference value: 462 +/- 64 pg); type: functional
Mycobacterium leprae [22] = experiment: Anti-leprotic activity against Mycobacterium leprae subcultures at 4 weeks assessed as ATP level per 10^7 cells at 15.0 mg/L measured by bioluminescence assay (reference value: 462 +/- 64 pg); type: functional
Mycobacterium leprae [23] = experiment: Anti-leprotic activity against Mycobacterium leprae primary cultures at 4 weeks assessed as ATP level per 10^7 cells at 5.0 mg/L measured by bioluminescence assay (reference value: 314 +/- 46 pg); type: functional
Mycobacterium leprae [24] = experiment: Antimicrobial activity against Mycobacterium leprae; type: functional
Mycobacterium leprae [25] = experiment: Anti-leprotic activity against Mycobacterium leprae subcultures at 4 weeks assessed as [3H]thymidine uptake per 5 times 10^7 cells at 0.5 mg/L (reference value: 1.28 +/- 0.14 pmol); type: functional
Mycobacterium leprae [26] = experiment: Anti-leprotic activity against Mycobacterium leprae primary cultures at 4 weeks assessed as ATP level per 10^7 cells at 20.0 mg/L measured by bioluminescence assay (reference value: 314 +/- 46 pg); type: functional
Mycobacterium leprae [27] = experiment: Anti-leprotic activity against Mycobacterium leprae subcultures at 4 weeks assessed as [3H]thymidine uptake per 5 times 10^7 cells at 1.0 mg/L (reference value: 1.28 +/- 0.14 pmol); type: functional
Mycobacterium leprae [28] = experiment: Anti-leprotic activity against Mycobacterium leprae subcultures at 4 weeks assessed as ATP level per 10^7 cells at 0.5 mg/L measured by bioluminescence assay (reference value: 462 +/- 64 pg); type: functional
Mycobacterium leprae [29] = experiment: Anti-leprotic activity against Mycobacterium leprae subcultures at 4 weeks assessed as [3H]thymidine uptake per 5 times 10^7 cells at 15.0 mg/L (reference value: 1.28 +/- 0.14 pmol); type: functional
Mycobacterium leprae [30] = experiment: Anti-leprotic activity against Mycobacterium leprae subcultures at 4 weeks assessed as ATP level per 10^7 cells at 5.0 mg/L measured by bioluminescence assay (reference value: 462 +/- 64 pg); type: functional
Mycobacterium leprae [31] = experiment: Anti-leprotic activity against Mycobacterium leprae primary cultures at 4 weeks assessed as ATP level per 10^7 cells at 1.0 mg/L measured by bioluminescence assay (reference value: 314 +/- 46 pg); type: functional
Mycobacterium leprae [32] = experiment: Anti-leprotic activity against Mycobacterium leprae subcultures at 4 weeks assessed as ATP level per 10^7 cells at 10.0 mg/L measured by bioluminescence assay (reference value: 462 +/- 64 pg); type: functional
Mycobacterium leprae [33] = experiment: Anti-leprotic activity against Mycobacterium leprae primary cultures at 4 weeks assessed as [3H]thymidine uptake per 5 times 10^7 cells at 20.0 mg/L (reference value: 0.95 +/- 0.01 pmol); type: functional
Mycobacterium leprae [34] = experiment: Anti-leprotic activity against Mycobacterium leprae subcultures at 4 weeks assessed as [3H]thymidine uptake per 5 times 10^7 cells at 10.0 mg/L (reference value: 1.28 +/- 0.14 pmol); type: functional

**Q.** For `Clc1ccc(/N=N/c2ccc(NCCCN3CCCCC3)c3c2CCCC3)cc1`, which MST [1] is on record?
**A.** The MST was 78 days.

**Q.** What about the MST [2] of the same compound?
**A.** Its MST is 33 days.

**Q.** And the MST [3]?
**A.** Its MST is 42 days.

**Q.** And the MST [4]?
**A.** The MST was 11 days.

**Q.** For `Nc1ccc(Cc2ccc(N)cc2)cc1`, which Time (Mycobacterium leprae [5]) is on record?
**A.** The Time was <10 days.

**Q.** For `CCC1(N2C(=O)c3cccc([N+](=O)[O-])c3C2=O)C(=O)NC(=O)N(c2ccccc2)C1=O` (centres undefined), which inhibition at 50 µM (Monocyte [6]) is on record?
**A.** The inhibition at 50 µM was < 10%.

**Q.** And the IC50 (Monocyte [7])?
**A.** Its IC50 is 3000 µM.

**Q.** What about the viability at 50 µM [8] of the same compound?
**A.** The viability at 50 µM was 77%.

**Q.** With `CC(=O)Nc1ccc(S(=O)(=O)c2ccc(NC(C)=O)cc2O)cc1` as the compound, how does the Time (Mycobacterium leprae [9]) read?
**A.** Its Time is 126 days.

**Q.** With `CCOc1cc(Cc2cnc(N)nc2N)cc(OCC)c1-n1cccc1` [EPIROPRIM] as the compound, how does the Activity (Mycobacterium leprae [10]) read?
**A.** Its Activity is 0.95 pg.

**Q.** What about the Activity (Mycobacterium leprae [11]) of the same compound?
**A.** Its Activity is 1.44 pmol.

**Q.** And the Activity (Mycobacterium leprae [12])?
**A.** The Activity was 0.88 pmol.

**Q.** And the Activity (Mycobacterium leprae [13])?
**A.** Its Activity is 325 pg.

**Q.** And the Activity (Mycobacterium leprae [14])?
**A.** Its Activity is 0 pmol.

**Q.** What about the Activity (Mycobacterium leprae [15]) of the same compound?
**A.** Its Activity is 0 pg.

**Q.** What about the Activity (Mycobacterium leprae [16]) of the same compound?
**A.** The Activity was 0 pmol.

**Q.** And the Activity (Mycobacterium leprae [17])?
**A.** The Activity was 1.12 pmol.

**Q.** What about the Activity (Mycobacterium leprae [18]) of the same compound?
**A.** Its Activity is 0 pg.

**Q.** What about the Activity (Mycobacterium leprae [19]) of the same compound?
**A.** The Activity was 0.73 pmol.

**Q.** What about the Activity (Mycobacterium leprae [20]) of the same compound?
**A.** Its Activity is 0 pmol.

**Q.** And the Activity (Mycobacterium leprae [21])?
**A.** Its Activity is 0 pg.

**Q.** And the Activity (Mycobacterium leprae [22])?
**A.** The Activity was 0 pg.

**Q.** And the Activity (Mycobacterium leprae [23])?
**A.** The Activity was 283 pg.

**Q.** And the MIC (Mycobacterium leprae [24])?
**A.** The MIC was 10 mg/L (≈ 28.3 µM).

**Q.** What about the Activity (Mycobacterium leprae [25]) of the same compound?
**A.** Its Activity is 0.413 pmol.

**Q.** What about the Activity (Mycobacterium leprae [26]) of the same compound?
**A.** The Activity was 0 pg.

**Q.** What about the Activity (Mycobacterium leprae [27]) of the same compound?
**A.** The Activity was 0.45 pmol.

**Q.** And the Activity (Mycobacterium leprae [28])?
**A.** The Activity was 0.82 pg.

**Q.** What about the Activity (Mycobacterium leprae [29]) of the same compound?
**A.** The Activity was 0 pmol.

**Q.** And the Activity (Mycobacterium leprae [30])?
**A.** Its Activity is 317 pg.

**Q.** And the Activity (Mycobacterium leprae [31])?
**A.** The Activity was 331 pg.

**Q.** And the Activity (Mycobacterium leprae [32])?
**A.** Its Activity is 0 pg.

**Q.** What about the Activity (Mycobacterium leprae [33]) of the same compound?
**A.** Its Activity is 0 pmol.

**Q.** What about the Activity (Mycobacterium leprae [34]) of the same compound?
**A.** Its Activity is 0 pmol.
